We go through two compounds from patent US8283373B2, “Inhibitors of cytosolic phospholipase A2” (Pfizer Inc., priority 2005, dated 2012).

Series [1] has as its system Human platelet aggregation. Briefly: Platelet Function Analyzer (PFA-100) study. The series is classed as cell-based. Conditions: whole human blood, Collagen/Epinephrine cartridges, 1.25 μg/ml. As to the method: Human platelet aggregation was studied using the platelet function analyzer (PFA-100®). Human blood was collected from volunteers who had denied taking any platelet inhibitory medications over the previous two weeks. Blood was collected in 3.2% sodium citrate Vacutainer tubes (Becton Dickinson). Tubes were inverted 5 times and the blood was transferred to 15 ml polypropylene conical tubes. […] Tubes were inverted 10 times to mix, and allowed to sit at room temperature for 10 minutes prior to run in PFA-100. The manufacturers protocol was followed for the PFA-100 using Collagen/Epinephrine cartridges (0.5% DMSO alone in whole blood gave closure times of 125+/−13.9 seconds). Maximum closure time is 300 seconds, as set by the manufacturer.
All compounds were efficacious in the platelet function assay.

The test system of series [2] is atherosclerosis in ApoE KO mice. In words: ApoE KO mouse model of atherosclerosis (20 weeks). The series is classed as in vivo. As to conditions: for decrease of atherosclerotic plaque burden at the aortic sinus vs control / atherosclerotic plaque burden at the aortic sinus: 20 weeks; for atherosclerotic plaque burden at the aortic sinus: control 519220±100694; for Atherosclerotic Lesions Along the Aorta (percent lesion area), % Decrease vs Control: ns = not significant. As to the method:
The apolipoprotein E (ApoE) knockout mouse was created by gene targeting in embryonic stem cells to disrupt the ApoE gene. ApoE is a glycoprotein that is responsible for the uptake of chylomicrons and VLDL particles by the liver, thereby preventing the accumulation of cholesterol rich remnants in the blood stream.
Six week old male ApoE KO mice were treated with 4-{3-[1-benzhydryl-5-chloro-2-(2-{[(3,4-dichlorobenzyl)sulfonyl]amino}ethyl)-1H-indol-3-yl]propyl}benzoic acid (Compound C).

Series [3] concerns serum thromboxane B2. Briefly: Thromboxane B2 levels in the ApoE KO mouse model. Type of series: in vivo. As to conditions: ApoE KO mice, 3.3 mg/g chow for two days; vehicle 76.1±17.3. As to the method: Blood was collected through the retro-orbital siunus and left to coagulate at 37° C. for one hour. Serum was then isolated and assayed for thromboxane B2 by ELISA.
In a separate experiment, ApoE KO mice were dosed with vehicle or the compound of Example 25 at 10 mg/kg by oral gavage. Blood was collected through the retro-orbital siunus and left to coagulate at 37° C. for one hour. Serum was then isolated and assayed for thromboxane B2 by ELISA.

Series [4] concerns primary dopaminergic neurons. In words: MPP+ exposure in dopaminergic neurons. The series is classed as cell-based, rat. As to conditions: 10 μM MPP+ 60 minutes, control 100, MPP+ alone 56.6. As to the method:
Primary dopaminergic neurons were isolated from E15 rat embryos as described in Pong K., et al., (1997) J. Neurochem. 69 986-994. Briefly, the ventral mesencephalon was isolated and tissue was pooled in ice-cold phosphate buffer saline (PBS) without Ca^2+ and Mg^2+. The tissue was transferred to an enzymatic dissociation media containing 20 IU/ml papain in Earle's balanced salt solution (Worthington Biochemical, Freehold, N.J.) and incubated for 30 minutes at 37° C. After enzymatic dissociation, the papain solution was aspirated and the tissue mechanically triturated with a fire-polished Pasteur pipette in complete media [Neurobasal Medium with B-27 supplement (Gibco, Grand Island, N.Y.), penicillin/streptomycin, aphidicolin, glutamate] containing 2,000 IU/ml DNase and 10 mg/ml ovomucoid protease inhibitor. Single-cell suspensions in complete media were plated on pre-coated poly-L-ornithine/laminin 24-well plates (Becton-Dickinson, Bedford, Mass.) at a density of 5.0×10^5 cells/well. Cells were maintained for one week prior to experimentation.
Cultures were exposed to 10 μM MPP^+ for 60 minutes. After the exposure, fresh media was exchanged and fresh compound was added. Dopaminergic neuron viability was determined 24 hours later by measuring ^3H-dopamine uptake as described in Pong et al., 1997, supra.

Series [5] can be described thus: Drug exposure in ApoE KO mice fed supplemented chow. Type of series: in vivo, mouse. Conditions: chow supplemented at 3.3 mg/g.
For series [6], the system named is Ascaris suum antigen-induced bronchoconstriction and AHR. As to conditions: literature (Abraham et al. 1992; Jones et al. 1995); cited from earlier work.

In the case of `O=C(O)c1ccc(CCCc2c(CCNS(=O)(=O)Cc3ccc(Cl)c(Cl)c3)n(C(c3ccccc3)c3ccccc3)c3ccc(Cl)cc23)cc1` [Compound C, 4-{3-[1-benzhydryl-5-chloro-2-(2-{[(3,4-dichlorobenzyl)sulfonyl]amino}ethyl)-1H-indol-3-yl]propyl}benzoic acid], in series [1], the PFA-100 closure time entry is given as “increased closure time”. In addition, the “Serum thromboxane B2 levels compared to control animals” value in series [2] (1.3 mg/g and 3.3 mg/g chow, after 9 and 20 weeks of treatment) is given as “significantly decreased”. Besides, the “percent of total animals with Stage 3 (advanced fibrous plaque)” value is on record as 33% in series [2] (1.3 mg/g chow) and 37% in series [2] (3.3 mg/g chow). Besides, the “percent of total animals with Stage 4 (stable complicated lesion)” value in series [2] (1.3 mg/g chow) was determined as 56%; in series [2] (3.3 mg/g chow), 27%. Moreover, the figures for the “percent of total animals with Stage 5 (unstable complicated lesion)” value in series [2] (1.3 mg/g chow) and in series [2] (3.3 mg/g chow) were 11% and 9%, respectively. For the same compound, the “decrease of atherosclerotic plaque burden at the aortic sinus vs control” value in series [2] (1.3 mg/g chow, p<0.05) worked out at 32.7%; in series [2] (3.3 mg/g chow, p<0.001), 45.6%. Besides, the “atherosclerotic plaque burden at the aortic sinus” value in series [2] (1.3 mg/g chow) is 349582±132685 μm^2; in series [2] (3.3 mg/g chow), 282697±146462 μm^2. Besides, the “Serum Thromboxane B2 Levels, % Decrease vs Control” value turned out to be 52.5% in series [2] (1.3 mg/g chow, after 9 weeks of treatment); 36.6% in series [2] (1.3 mg/g chow, after 20 weeks of treatment); 61.2% in series [2] (3.3 mg/g chow, after 9 weeks of treatment); 49.5% in series [2] (3.3 mg/g chow, after 20 weeks of treatment). The “Atherosclerotic Lesions Along the Aorta (percent lesion area), % Decrease vs Control” value in series [2] (1.3 mg/g chow) is given as 32.4 ns %; in series [2] (3.3 mg/g chow), 35.2 ns %. The “percent of total animals with Stage 1 (fibrofatty lesion)” value in series [2] (3.3 mg/g chow) is 9%. For the same compound, the “percent of total animals with Stage 2 (early fibrous plaque)” value in series [2] (3.3 mg/g chow) stood at 18%. For the same compound, in series [2] (1.3 and 3.3 mg/g chow), the “atherosclerotic lesion complexity at the aortic sinus vs control” value is “reduced”. Moreover, the “serum Thromboxane concentration” value in series [3] came out at 33.5 ± 11.6 ng/mL. Moreover, the “dopaminergic neuron viability (3H-dopamine uptake), Avg.” value in series [4] (0.3 μM) is reported as 68.6; in series [4] (1 μM) it was 70.6; in series [4] (3 μM), 75.9; in series [4] (10 μM), 79.6. The compound also displayed a maximum drug exposure in series [5] of about 500 ng/mL.
As for `CC(c1cc2ccccc2s1)N(O)C(N)=O` (stereo not shown) [zileuton], the “effect on antigen-induced airway responses in the sheep model” value in series [6] was “blocks antigen-induced late airway responses, inflammation, and AHR”.
